In patent US4537776A, “Penetrating topical pharmaceutical compositions containing N-(2-hydroxyethyl) pyrrolidone” (priority 1983, dated 1985):

Experiment: Penetration study, Franz diffusion apparatus, human skin (*)
Type: in vitro ADME
Details: Example 8; for Reduction of penetration on addition of the compound (in words): results similar to octanoic acid (reduces penetration by 50%)
Experimental: The following Penetration Studies carried out in the following manner. […] A normal saline solution is added to the lower diffusion cell, abutting the subcutaneous side of the skin. The test composition (comprising a solution of active or actives added to the carrier at the indicated formulation in a conventional manner by thoroughly mixing) is added to the diffusion cell abutting the epidermal side of the skin.
This cell assembly is kept at a constant temperature of about 31° C. At appropriate or desired intervals (these are the time designations given in the following examples) each diffusion cell assembly is opened and the diffusate from the cell abutting the subcutaneous side of the skin is withdrawn. Drug actives in a diffusate is measured using standard analytical techniques. Each trial is run on a separate sample of skin.

Reduction of penetration on addition of the compound (in words) | Reduction of penetration on addition of the compound (added to 1% Triamcinolone in Propylene Glycol + 2% C14 OH, human skin, 0-72 hrs.) | Structure (SMILES)
– | 50% | CCCCCCCC(=O)O [octanoic acid]
Substantially similar results | – | CCCCCCCCCCCCCCCCO [cetyl alcohol]
Substantially similar results | – | CCCCCCCCCC(=O)O [decanoic acid]

Structure (SMILES) | Reduction of penetration on addition of the compound (in words) | Reduction of penetration on addition of the compound (added to 1% Triamcinolone in Propylene Glycol + 2% C14 OH, human skin, 0-72 hrs.)
CCCCCCCCCCCCCCCCCCO [stearyl alcohol] | Substantially similar results | –
